The target in assay [1] is T1, 5-HT1A receptor (Rattus norvegicus, UniProt P19327).
T1 sequence (P19327 1-422): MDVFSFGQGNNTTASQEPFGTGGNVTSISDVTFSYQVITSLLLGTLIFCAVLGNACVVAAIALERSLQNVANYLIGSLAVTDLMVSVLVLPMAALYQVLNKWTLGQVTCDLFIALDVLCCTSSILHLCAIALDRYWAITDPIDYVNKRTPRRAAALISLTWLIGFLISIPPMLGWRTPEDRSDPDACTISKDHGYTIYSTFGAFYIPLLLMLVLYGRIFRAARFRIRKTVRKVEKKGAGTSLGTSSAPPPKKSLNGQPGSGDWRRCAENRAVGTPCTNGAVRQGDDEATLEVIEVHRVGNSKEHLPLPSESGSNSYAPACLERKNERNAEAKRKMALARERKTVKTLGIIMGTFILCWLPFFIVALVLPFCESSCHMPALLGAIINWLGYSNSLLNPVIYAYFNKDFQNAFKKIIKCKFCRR
The assay is described as follows: biochemical. It counts as binding. As to conditions: rat cerebral cortex, [^3 H]8-OH-DPAT 0.2 nM, 23° C., 30 minutes, mean of 3 to 5 experiments; for Ki: read-out: pKi (Affinity for the 5-HT1A receptor) (converted).

Assay [2] deals with T2, 5-HT1A type serotoninergic receptors (Rattus norvegicus, UniProt P19327).
T2 construct: carried out in male rats (Sprague Dawley); from tissue; host or cells: living male Sprague Dawley rats (whole animal)
T2 sequence (P19327 1-422): T1 sequence (P19327 1-422)
Description: 5-HT syndrome in rats (FBP, LLR, FPT). It counts as in vivo. The conditions noted are these: ip, male Sprague Dawley rats. The procedure:
The central activity of the compounds of the invention was evaluated for their capacity to cause the 5-HT syndrome, which is characterized by reciprocal fore-paw treading (FPT), lower-lip retraction (LLR) and flat body posture (FBP).
The experiments for the evaluation of the 5-HT syndrome are carried out in male rats (Sprague Dawley) according to the method described by F.C COLPAERT et al (Drug Dev. Res., 26, 21-48; 1992).

The mark [3] stands for this setting: FBP, read-out: ED50 flat body posture (FBP), 5-HT syndrome.
[4] abbreviates: FPT, read-out: ED50 reciprocal fore-paw treading (FPT), 5-HT syndrome.
The mark [5] stands for this setting: LLR, read-out: ED50 lower-lip retraction (LLR), 5-HT syndrome.

Where a name gives a salt, the structure may show the parent alone. Read-outs that look alike come from different tables or passages of the source. Where only a bound is given, the exact number is not on record here.

The values that follow come from US5977106A, “3,5-dioxo-(2H,4H)-1,2,4-triazine derivatives” (Pierre Fabre Medicament, priority 1994, dated 1999).

For the compound `Cc1nn(CCCCN2CCN(c3cccc(C(F)(F)F)c3)CC2)c(=O)n(C)c1=O` [Compound 13, 4,6-dimethyl-2-(4-(4-(3-trifluoromethylphenyl)piperazino)butyl-3,5-dioxo-(2H,4H)-1,2,4-triazine hydrochloride], in assay [1], the Ki was 2.63 nM.
Regarding “4-methyl-2-(4-(2,3-dihydro-1,4-dioxino-[2,3-b]-pyridin-2-ylmethylamino)butyl)-3,5-dioxo-(2H,4H)-1,2,4-triazine fumarate [Compound 16]”, the “pKi (Affinity for the 5-HT1A receptor)” value in assay [1] was found to be 9.36.
As for `Cc1nn(CCCCN2CCN(c3cccc(C(F)(F)F)c3)CC2)c(=O)[nH]c1=O` [Compound 12, 6-methyl-2-(4-(4-(3-trifluoromethylphenyl)piperazino)butyl)-3,5-dioxo-(2H,4H)-1,2,4-triazine], the Ki in assay [1] was 6.46 nM.
The same measure, in the same setting: next, `Cc1cc(C)nc(N2CCN(CCCCn3ncc(=O)n(C)c3=O)CC2)n1` [Compound 26, 4-methyl-2-(4-(4-(4,6-dimethyl-2-pyrimidinyl)piperazino)butyl)-3,5-dioxo-(2H,4H)-1,2,4-triazine]: 0.646 nM.
Regarding `Cn1c(=O)cnn(CCCCN2CCN(c3ncccn3)CC2)c1=O` [Compound 30, 4-methyl-2-(4-(4-(2-pyrimidinyl)piperazino)butyl)-3,5-dioxo-(2H,4H)-1,2,4-triazine fumarate], in assay [1], the Ki is 3.31 nM.
Turning to `COc1ccccc1N1CCN(CCCCn2ncc(=O)n(C)c2=O)CC1` [Compound 11], the Ki in assay [1] is 0.132 nM.
`COc1ccnc(N2CCN(CCCCn3ncc(=O)n(C)c3=O)CC2)n1` [Compound 28, 4-methyl-2-(4-(4-(4-methoxy-2-pyrimidinyl)piperazino)butyl)-3,5-dioxo-(2H,4H)-1,2,4-triazine]: the Ki in assay [1] was 0.851 nM.
By ED50 is commonly meant the dose at which the effect has come halfway, by size or by number of responders. Turning to `COc1ccc2cccc(N3CCN(CCCCn4ncc(=O)n(C)c4=O)CC3)c2c1` [Compound 10, 4-methyl-2-(4-(4-(7-methoxynaphthalene-1-yl)piperazino)butyl-3,5-dioxo-(2H,4H)-1,2,4-triazine fumarate], in assay [1], the Ki is 0.0324 nM. The values for the 50% effective dose (ED50) in assay [2] (setting [3]), in assay [2] (setting [4]) and in assay [2] (setting [5]) were 0.02 mg/kg, 0.02 mg/kg and 0.005 mg/kg, respectively.
For the compound `Cn1c(=O)cnn(CCCCN2CCN(c3ccc(Cl)c(Cl)c3)CC2)c1=O` [Compound 21, 4-methyl-2-(4-(4-(3,4-dichloro-phenyl)piperazino)butyl)-3,5-dioxo-(2H,4H)-1,2,4-triazine], the Ki in assay [1] is 2.63 nM.
Turning to “4-methyl-2-(4-(4-(4,6-dimethyl-2-pyrimidinyl)piperazino)butyl)-3,5-dioxo-(2H,4H)-1,2,4-triazine [Compound 27]”, the “pKi (Affinity for the 5-HT1A receptor)” value in assay [1] turned out to be 9.23.
In the case of `Cl.Cn1c(=O)cnn(CCCCN2CCN(c3cccc(C(F)(F)F)c3)CC2)c1=O` [Compound 3, 4-methyl-2-(4-(4-(3-trifluoromethylphenyl)piperazino)butyl)-3,5-dioxo-(2H,4H)-1,2,4-triazine hydrochloride], the Ki in assay [1] is 0.24 nM. For the same compound, the ED50 stood at 0.31 mg/kg in assay [2] (setting [3]), 0.31 mg/kg in assay [2] (setting [4]) and 0.08 mg/kg in assay [2] (setting [5]).
For the compound `O=C1CC2(CCCC2)CC(=O)N1CCCCN1CCN(c2ncccn2)CC1` [Buspirone, reference compound], the 50% effective dose (ED50) in assay [2] (setting [4]) is greater than 40 mg/kg.
Take `Cn1c(=O)cnn(CCCCN2CCN(c3nccc(Cl)n3)CC2)c1=O` [Compound 24]: in assay [1], the Ki was 0.794 nM.
Consider `Cn1c(=O)cnn(CCCCN2CCN(c3cc(Cl)cc(Cl)c3)CC2)c1=O` [Compound 23, 4-methyl-2-(4-(4-(3,5-dichloro-phenyl)piperazino)butyl)-3,5-dioxo-(2H,4H)-1,2,4-triazine], for which, in assay [1], the Ki was 0.912 nM.
On to `CN(CCCCn1ncc(=O)n(C)c1=O)CC1COc2ccccc2O1` (stereo not drawn) [Compound 15, 4-methyl-2-(4-(N-methyl, 1,4-benzodioxan-2-ylmethylamino)butyl)-3,5-dioxo-(2H,4H)-1,2,4-triazine fumarate], for which the Ki in assay [1] is 2.82 nM.
With `Cn1c(=O)cnn(CCCCNCC2COc3ccccc3O2)c1=O` (stereo not drawn) [Compound 14, 4-methyl-2-(4-(1,4-benzodioxane-2-ylmethylamino)butyl)-3,5-dioxo-(2H,4H)-1,2,4-triazine], the Ki in assay [1] is 0.269 nM.
As for `Cn1c(=O)cnn(CCCCN2CCN(c3ncccn3)CC2)c1=O` [Compound 9, 4-methyl-2-(4-(4-pyrimidinyl-2)piperazino)butyl-3,5-dioxo-(2H,4H)-1,2,4-triazine], in assay [1], the Ki was 4.57 nM. The ED50 in assay [2] (setting [3]) was 0.08 mg/kg; in assay [2] (setting [4]) it was 0.31 mg/kg; in assay [2] (setting [5]), 0.08 mg/kg.
As to `Cc1ccnc(N2CCN(CCCCn3ncc(=O)n(C)c3=O)CC2)n1` [Compound 25], the Ki in assay [1] was 0.724 nM.
The same measure, in the same setting: next, `Cn1c(=O)cnn(CCCCN2CCN(c3cccc(Cl)c3)CC2)c1=O` [Compound 4, 4-methyl-2-(4-(4-(3-chlorophenyl)piperazino)butyl)-3,5-dioxo-(2H,4H)-1,2,4-triazine]: 0.269 nM; `Cn1c(=O)cnn(CCCCN2CCN(c3cccc(Cl)c3Cl)CC2)c1=O` [Compound 22, 4-methyl-2-(4-(4-(2,3-dichloro-phenyl)piperazino)butyl)-3,5-dioxo-(2H,4H)-1,2,4-triazine]: 0.316 nM.
Take `O=c1cnn(CCCCN2CCN(c3cccc(C(F)(F)F)c3)CC2)c(=O)[nH]1` [Compound 1, 2-[4-(4-(3-trifluoromethylphenyl)piperazino)butyl]-3,5-dioxo-(2H,4H)-1,2,4-triazine hydrochloride]: the Ki in assay [1] is 0.55 nM.
